From PubChem BioAssay (NCI)
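48-hour exposure; five concentrations; linearly interpolated endpoints. GI50 is the concentration that inhibits growth by half. TGI: total growth inhibition.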

Tests used:
Assay in all cases: NCI tumour cell line growth inhibition, 48 h
LOX IMVI melanoma = test system: LOX IMVI melanoma
BT-549 breast = test system: BT-549 breast
UACC-257 melanoma = test system: UACC-257 melanoma
SK-OV-3 ovarian = test system: SK-OV-3 ovarian
MCF7 breast = test system: MCF7 breast
SR leukemia = test system: SR leukemia
SF-268 CNS = test system: SF-268 CNS
NCI/ADR-RES ovarian = test system: NCI/ADR-RES ovarian
A498 renal = test system: A498 renal
786-0 renal = test system: 786-0 renal
HL-60(TB) leukemia = test system: HL-60(TB) leukemia
M14 melanoma = test system: M14 melanoma
HT29 colon = test system: HT29 colon
SF-295 CNS = test system: SF-295 CNS
EKVX NSCLC = test system: EKVX NSCLC
SW-620 colon = test system: SW-620 colon
CCRF-CEM leukemia = test system: CCRF-CEM leukemia
U251 CNS = test system: U251 CNS
HCT-116 colon = test system: HCT-116 colon
HOP-62 NSCLC = test system: HOP-62 NSCLC
SF-539 CNS = test system: SF-539 CNS
HS 578T breast = test system: HS 578T breast
HCT-15 colon = test system: HCT-15 colon
MDA-MB-435 = test system: MDA-MB-435
UACC-62 melanoma = test system: UACC-62 melanoma
NCI-H460 lung = test system: NCI-H460 lung
CAKI-1 renal = test system: CAKI-1 renal
MOLT-4 leukemia = test system: MOLT-4 leukemia
COLO 205 colon = test system: COLO 205 colon
ACHN renal = test system: ACHN renal
IGROV1 ovarian = test system: IGROV1 ovarian
KM12 colon = test system: KM12 colon
SK-MEL-28 melanoma = test system: SK-MEL-28 melanoma
PC-3 prostate = test system: PC-3 prostate
OVCAR-8 ovarian = test system: OVCAR-8 ovarian
OVCAR-3 ovarian = test system: OVCAR-3 ovarian
OVCAR-5 ovarian = test system: OVCAR-5 ovarian
SK-MEL-2 melanoma = test system: SK-MEL-2 melanoma
NCI-H226 lung = test system: NCI-H226 lung
NCI-H23 lung = test system: NCI-H23 lung
SNB-75 CNS = test system: SNB-75 CNS
MALME-3M melanoma = test system: MALME-3M melanoma
TK-10 renal = test system: TK-10 renal
RXF 393 renal = test system: RXF 393 renal
MDA-MB-231 breast = test system: MDA-MB-231 breast
SK-MEL-5 melanoma = test system: SK-MEL-5 melanoma
A549 NSCLC = test system: A549 NSCLC
NCI-H522 lung = test system: NCI-H522 lung
RPMI-8226 leukemia = test system: RPMI-8226 leukemia
SN12C renal = test system: SN12C renal
HOP-92 NSCLC = test system: HOP-92 NSCLC
OVCAR-4 ovarian = test system: OVCAR-4 ovarian
HCC-2998 colon = test system: HCC-2998 colon
T-47D breast = test system: T-47D breast
SNB-19 CNS = test system: SNB-19 CNS
UO-31 renal = test system: UO-31 renal
K-562 leukemia = test system: K-562 leukemia

O=c1[nH]c2ccc(CC(=S)N3CCOCC3)cc2o1
TGI (LOX IMVI melanoma): > 100 µM
TGI (BT-549 breast): > 100 µM
TGI (UACC-257 melanoma): > 100 µM
TGI (SK-OV-3 ovarian): > 100 µM
TGI (MCF7 breast): > 100 µM
TGI (SR leukemia): > 100 µM
TGI (SF-268 CNS): > 100 µM
TGI (NCI/ADR-RES ovarian): > 100 µM
TGI (A498 renal): > 100 µM
TGI (786-0 renal): > 100 µM
TGI (HL-60(TB) leukemia): > 100 µM
TGI (M14 melanoma): > 100 µM
TGI (HT29 colon): > 100 µM
TGI (SF-295 CNS): > 100 µM
TGI (EKVX NSCLC): > 100 µM
TGI (SW-620 colon): > 100 µM
TGI (CCRF-CEM leukemia): > 100 µM
TGI (U251 CNS): > 100 µM
TGI (HCT-116 colon): > 100 µM
TGI (HOP-62 NSCLC): > 100 µM
TGI (SF-539 CNS): > 100 µM
TGI (HS 578T breast): > 100 µM
TGI (HCT-15 colon): > 100 µM
TGI (MDA-MB-435): > 100 µM
TGI (UACC-62 melanoma): > 100 µM
TGI (NCI-H460 lung): > 100 µM
TGI (CAKI-1 renal): > 100 µM
TGI (MOLT-4 leukemia): > 100 µM
TGI (COLO 205 colon): > 100 µM
TGI (ACHN renal): > 100 µM
TGI (IGROV1 ovarian): > 100 µM
TGI (KM12 colon): > 100 µM
TGI (SK-MEL-28 melanoma): > 100 µM
TGI (PC-3 prostate): > 100 µM
TGI (OVCAR-8 ovarian): > 100 µM
TGI (OVCAR-3 ovarian): > 100 µM
TGI (OVCAR-5 ovarian): > 100 µM
TGI (SK-MEL-2 melanoma): > 100 µM
TGI (NCI-H226 lung): > 100 µM
TGI (NCI-H23 lung): > 100 µM
TGI (SNB-75 CNS): > 100 µM
TGI (MALME-3M melanoma): > 100 µM
TGI (TK-10 renal): > 100 µM
TGI (RXF 393 renal): > 100 µM
TGI (MDA-MB-231 breast): > 100 µM

Cc1cc(N(CCNc2ccnc3cc(Cl)ccc23)Cc2ccc3c(c2)OCO3)nc(N2CCCC2)n1
GI50 (LOX IMVI melanoma): 1.6 µM
TGI (LOX IMVI melanoma): 3.16 µM
GI50 (BT-549 breast): 1.82 µM
TGI (BT-549 breast): 4.27 µM
GI50 (UACC-257 melanoma): 1.64 µM
TGI (UACC-257 melanoma): 3.24 µM
GI50 (SK-OV-3 ovarian): 2.63 µM
TGI (SK-OV-3 ovarian): 8.15 µM
GI50 (MCF7 breast): 1.49 µM
TGI (MCF7 breast): 4.19 µM
GI50 (SR leukemia): 0.25 µM
TGI (SR leukemia): 0.635 µM
GI50 (SF-268 CNS): 2.2 µM
TGI (SF-268 CNS): 7.16 µM
GI50 (NCI/ADR-RES ovarian): 1.79 µM
TGI (NCI/ADR-RES ovarian): 5.56 µM
GI50 (A498 renal): 1.61 µM
TGI (A498 renal): 3.94 µM
GI50 (786-0 renal): 1.33 µM
TGI (786-0 renal): 2.85 µM
GI50 (HL-60(TB) leukemia): 1.95 µM
TGI (HL-60(TB) leukemia): 4.06 µM
GI50 (M14 melanoma): 1.83 µM
TGI (M14 melanoma): 3.71 µM
GI50 (HT29 colon): 0.706 µM
TGI (HT29 colon): 3.66 µM
GI50 (SF-295 CNS): 1.34 µM
TGI (SF-295 CNS): 2.88 µM
GI50 (EKVX NSCLC): 2.74 µM
TGI (EKVX NSCLC): 14.2 µM
GI50 (SW-620 colon): 1.19 µM
TGI (SW-620 colon): 2.94 µM
GI50 (SK-MEL-5 melanoma): 1.76 µM
TGI (SK-MEL-5 melanoma): 3.21 µM
GI50 (CCRF-CEM leukemia): 1.57 µM
TGI (CCRF-CEM leukemia): 9.09 µM
GI50 (U251 CNS): 1.36 µM
TGI (U251 CNS): 3.21 µM
GI50 (HCT-116 colon): 0.532 µM
TGI (HCT-116 colon): 2.14 µM
GI50 (HOP-62 NSCLC): 1.86 µM
TGI (HOP-62 NSCLC): 10.2 µM
GI50 (SF-539 CNS): 1.6 µM
TGI (SF-539 CNS): 3.09 µM
GI50 (A549 NSCLC): 1.67 µM
TGI (A549 NSCLC): 4.96 µM
GI50 (HS 578T breast): 1.72 µM
TGI (HS 578T breast): 5.02 µM
GI50 (HCT-15 colon): 1.22 µM
TGI (HCT-15 colon): 3.18 µM
GI50 (MDA-MB-435): 1.62 µM
TGI (MDA-MB-435): 3.18 µM
GI50 (NCI-H522 lung): 1.74 µM
TGI (NCI-H522 lung): 3.79 µM
GI50 (UACC-62 melanoma): 1.88 µM
TGI (UACC-62 melanoma): 3.49 µM
GI50 (RPMI-8226 leukemia): 1.47 µM
TGI (RPMI-8226 leukemia): 3.99 µM
GI50 (MOLT-4 leukemia): 1.86 µM
TGI (MOLT-4 leukemia): 7.03 µM
GI50 (SN12C renal): 1.5 µM
TGI (SN12C renal): 3.87 µM
GI50 (COLO 205 colon): 1.53 µM
TGI (COLO 205 colon): 3.17 µM
GI50 (HOP-92 NSCLC): 0.695 µM
TGI (HOP-92 NSCLC): 2.86 µM
GI50 (ACHN renal): 1.91 µM
TGI (ACHN renal): 4.09 µM
GI50 (IGROV1 ovarian): 1.54 µM
TGI (IGROV1 ovarian): 3.64 µM
GI50 (KM12 colon): 2.7 µM
TGI (KM12 colon): 11.5 µM
GI50 (SK-MEL-28 melanoma): 1.68 µM
TGI (SK-MEL-28 melanoma): 3.2 µM
GI50 (PC-3 prostate): 2.85 µM
TGI (PC-3 prostate): 14 µM
GI50 (OVCAR-8 ovarian): 1.91 µM
TGI (OVCAR-8 ovarian): 5.01 µM
GI50 (OVCAR-4 ovarian): 1.39 µM
TGI (OVCAR-4 ovarian): 3.24 µM
GI50 (OVCAR-3 ovarian): 1.74 µM
TGI (OVCAR-3 ovarian): 3.81 µM
GI50 (OVCAR-5 ovarian): 1.87 µM
TGI (OVCAR-5 ovarian): 4.95 µM
GI50 (HCC-2998 colon): 1.89 µM
TGI (HCC-2998 colon): 3.9 µM
GI50 (T-47D breast): 1.93 µM
TGI (T-47D breast): 5.44 µM
GI50 (SK-MEL-2 melanoma): 1.82 µM
TGI (SK-MEL-2 melanoma): 3.62 µM
GI50 (NCI-H226 lung): 2.46 µM
TGI (NCI-H226 lung): 6.86 µM
GI50 (NCI-H23 lung): 2 µM
TGI (NCI-H23 lung): 6.25 µM
GI50 (SNB-19 CNS): 2.53 µM
TGI (SNB-19 CNS): 11.3 µM
GI50 (SNB-75 CNS): 1.34 µM
TGI (SNB-75 CNS): 3 µM
GI50 (MALME-3M melanoma): 1.89 µM
TGI (MALME-3M melanoma): 3.54 µM
GI50 (UO-31 renal): 1.26 µM
TGI (UO-31 renal): 2.99 µM
GI50 (TK-10 renal): 1.74 µM
TGI (TK-10 renal): 3.8 µM
GI50 (K-562 leukemia): 0.7 µM
TGI (K-562 leukemia): 3.2 µM
GI50 (RXF 393 renal): 1.28 µM
TGI (RXF 393 renal): 2.74 µM
GI50 (MDA-MB-231 breast): 1.28 µM
TGI (MDA-MB-231 breast): 3.27 µM
